# Reference: US20190307690A1 (THE AMERICAN UNIVERSITY IN CAIRO, priority 2016, published 2019)
# Assays:
# [1] = test system: MCF-7 cell line; test: γ-H2AX assay (DNA damage); format: cell-based, human; details: 2 μM, 1 hr exposure, 24 hours in fresh media; preliminary data
# Experimental: After incubation, the media was discarded and the cells were further incubated in fresh media for 24 hours. Cells were then fixed using formaldehyde and permeabilized with Triton X-100, and subsequently incubated with H2AX primary antibody for 1 hr. Then, cells were washed using PBS and were further incubated for 30 min. in FITC mouse secondary antibody and washed using PBS. Finally cells were stained using DAPI and observed under a fluorescence microscope.
# [2] = reference [91]; cited from earlier work
# [3] = In-vitro drug release analysis (dialysis, PBS pH 7.4) with release kinetics and f1/f2 comparison; format: physicochemical; details: oxaliplatin release
# Experimental: The drug release testing was conducted according to a described method (Shazly et al., Comparison of dialysis and dispersion methods for in vitro release determination of drugs from multilamellar liposomes, Dissolution Technol., vol. 15, no. 2, pp. 7-10, 2008). […] A volume of 0.5 ml of liposomal preparation was placed in a dialysis tubing (3.8 cm in length). Both ends were tied. The dialysis bag was suspended in 25 ml PBS at pH 7.4 and maintained at 37±0.5° C. (Shazly et al., 2008). The dispersion was rotated at 200 strokes/minute in a water bath shaker (Shazly et al., 2008). At predetermined time intervals of 0.25, 0.5, 1, 1.5, 2, 4, 6, 8, 12, 24, 48, and 72 h; 1 ml aliquots were sampled and replaced with 1 ml fresh pH 7.4 PBS, which was maintained at the same temperature as the samples being 37±0.5° C. Drug concentrations were determined using HPLC.
# Two methods were used to investigate the kinetics of drug release profile from the prepared liposomal formulations.
# This method involved the fitting of the release data to one of the following seven release kinetic models.
# Where, Qt is the amount of drug released in time t, Q0 is the initial amount of drug in the solution and K0 is the zero order release constant expressed in units of concentration/time. To study the release kinetics, data obtained from in-vitro drug release studies were plotted as cumulative amount of drug released versus time.
# Where, Ct is the concentration of drug released in time t, C0 is the initial concentration of drug, K1 is the first order rate constant. The data obtained were plotted as log cumulative percentage of drug remaining versus time which would yield a straight line with a slope of −K/2.303.
# Where, Q is the amount of drug released in time t, KH is the Higuchi dissolution constant. The data obtained were plotted as cumulative percentage of drug released versus square root of time.
# Where, Qt is the amount of drug remaining in time t, Q0 is the initial amount of the drug in liposome and KC is the rate constant for Hixson-Crowell rate equation. The data obtained were plotted as Cube root of cumulative percentage of drug remaining versus time.
# Where Mt/M∞ is a fraction of drug released at time t, KP is the release rate constant and n is the release exponent. The data obtained were plotted as log (cumulative percentage of drug released) versus log (time).
# Where [Mt/M∞] is a fraction of drug released at time t, KB is the release rate constant. To study the release kinetics, data obtained from in-vitro drug release were plotted as [d(Mt/M∞)/dt] against the root of time inverse on x-axis.
# Where Vm is the maximum release rate, Km is the Michaelis-Menten constant, C is the amount of drug released, and t is time. The data obtained were plotted as drug release % versus time. Michaelis-menten was previously reported in describing the release kinetics of Ketorolac from silica nanoparticles (Lopez Goerneet al., Obtaining of sol-gel ketorolac-silica nanoparticles: Characterization and drug release kinetics, J. Nanomater., vol. 2013, 2013).
# This method utilizes the difference factor (f1), similarity factor (f2) to compare the release profiles of different formulations by measuring the percent difference and the percent similarity respectively.
# Where, n is the number of release sample time intervals, Rt, and Tt are the percent released at each time point, t, for the reference and test drug release profiles, respectively.
compound,measurement,setting,value
"N[C@@H]1CCCC[C@H]1N.O=C([O-])C(=O)[O-].[Pt+2] [Oxaliplatin, Platinum(2+) ethanedioate (1R,2R)-1,2-cyclohexanediamine (1:1:1)]","DNA damage magnitude (γ-H2AX immunofluorescence), in words",[1],relatively lower DNA damage
same,Cell membrane permeability,[2],<1 × 10^−6 [91] cm/s
same,Baker-Lonsdale K (release rate constant),[3],0.1963
same,First-order K1 (release rate constant),[3],−0.0172
same,Higuchi KH (rate constant),[3],4.5644
same,Hixson-Crowell KC (cube root law release constant),[3],−0.0127
same,Korsmeyer-peppas n (slope exponent),[3],0.0257
same,Michaelis-Menten K (release rate constant),[3],0.0422
same,Zero-order K0 (release rate constant),[3],0.3444
same,F1 (difference factor),[3]; Reference LP-Ox,11.37
same,F2 (similarity factor),[3]; Reference LP-Ox,50.60
same,F1 (difference factor),[3]; Reference LP-void-Oxpt,22.47
same,F2 (similarity factor),[3]; Reference LP-void-Oxpt,38.25
same,F1 (difference factor),[3]; Reference Lipoxal,252.7
same,F2 (similarity factor),[3]; Reference Lipoxal,8.940
